The values that follow come from BindingDB's records for doi:10.1124/jpet.104.081224 (German Cancer Research Center, 2005).

Usually Ki stands for a measure of affinity in units of concentration, obtained from inhibition or displacement. Higher therefore signals weaker binding.

The target of experiment [1] is T1, Solute carrier organic anion transporter family member 1B3 (Homo sapiens, UniProt Q9NPD5).
T1 sequence (Q9NPD5 whole entry): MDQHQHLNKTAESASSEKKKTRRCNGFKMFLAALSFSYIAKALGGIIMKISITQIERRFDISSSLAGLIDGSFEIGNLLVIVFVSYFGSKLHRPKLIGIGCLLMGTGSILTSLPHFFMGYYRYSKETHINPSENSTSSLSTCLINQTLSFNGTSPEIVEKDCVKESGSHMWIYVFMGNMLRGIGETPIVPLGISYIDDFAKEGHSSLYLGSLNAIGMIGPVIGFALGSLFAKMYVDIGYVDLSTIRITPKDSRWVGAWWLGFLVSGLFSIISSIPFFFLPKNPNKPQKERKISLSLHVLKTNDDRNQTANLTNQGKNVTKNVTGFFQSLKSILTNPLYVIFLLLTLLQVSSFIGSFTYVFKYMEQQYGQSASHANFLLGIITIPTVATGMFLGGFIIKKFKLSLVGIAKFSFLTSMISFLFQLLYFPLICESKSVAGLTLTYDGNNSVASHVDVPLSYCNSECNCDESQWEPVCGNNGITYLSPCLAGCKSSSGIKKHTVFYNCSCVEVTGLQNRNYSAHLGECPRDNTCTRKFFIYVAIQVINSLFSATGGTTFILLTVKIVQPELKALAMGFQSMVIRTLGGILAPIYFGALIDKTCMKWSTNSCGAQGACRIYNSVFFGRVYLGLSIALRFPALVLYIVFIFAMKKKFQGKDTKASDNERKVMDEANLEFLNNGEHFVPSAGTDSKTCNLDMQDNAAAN

The target of experiment [2] is ATP-binding cassette sub-family C member 2 (Homo sapiens, UniProt Q92887).
Sequence of ATP-binding cassette sub-family C member 2 (Q92887 whole entry): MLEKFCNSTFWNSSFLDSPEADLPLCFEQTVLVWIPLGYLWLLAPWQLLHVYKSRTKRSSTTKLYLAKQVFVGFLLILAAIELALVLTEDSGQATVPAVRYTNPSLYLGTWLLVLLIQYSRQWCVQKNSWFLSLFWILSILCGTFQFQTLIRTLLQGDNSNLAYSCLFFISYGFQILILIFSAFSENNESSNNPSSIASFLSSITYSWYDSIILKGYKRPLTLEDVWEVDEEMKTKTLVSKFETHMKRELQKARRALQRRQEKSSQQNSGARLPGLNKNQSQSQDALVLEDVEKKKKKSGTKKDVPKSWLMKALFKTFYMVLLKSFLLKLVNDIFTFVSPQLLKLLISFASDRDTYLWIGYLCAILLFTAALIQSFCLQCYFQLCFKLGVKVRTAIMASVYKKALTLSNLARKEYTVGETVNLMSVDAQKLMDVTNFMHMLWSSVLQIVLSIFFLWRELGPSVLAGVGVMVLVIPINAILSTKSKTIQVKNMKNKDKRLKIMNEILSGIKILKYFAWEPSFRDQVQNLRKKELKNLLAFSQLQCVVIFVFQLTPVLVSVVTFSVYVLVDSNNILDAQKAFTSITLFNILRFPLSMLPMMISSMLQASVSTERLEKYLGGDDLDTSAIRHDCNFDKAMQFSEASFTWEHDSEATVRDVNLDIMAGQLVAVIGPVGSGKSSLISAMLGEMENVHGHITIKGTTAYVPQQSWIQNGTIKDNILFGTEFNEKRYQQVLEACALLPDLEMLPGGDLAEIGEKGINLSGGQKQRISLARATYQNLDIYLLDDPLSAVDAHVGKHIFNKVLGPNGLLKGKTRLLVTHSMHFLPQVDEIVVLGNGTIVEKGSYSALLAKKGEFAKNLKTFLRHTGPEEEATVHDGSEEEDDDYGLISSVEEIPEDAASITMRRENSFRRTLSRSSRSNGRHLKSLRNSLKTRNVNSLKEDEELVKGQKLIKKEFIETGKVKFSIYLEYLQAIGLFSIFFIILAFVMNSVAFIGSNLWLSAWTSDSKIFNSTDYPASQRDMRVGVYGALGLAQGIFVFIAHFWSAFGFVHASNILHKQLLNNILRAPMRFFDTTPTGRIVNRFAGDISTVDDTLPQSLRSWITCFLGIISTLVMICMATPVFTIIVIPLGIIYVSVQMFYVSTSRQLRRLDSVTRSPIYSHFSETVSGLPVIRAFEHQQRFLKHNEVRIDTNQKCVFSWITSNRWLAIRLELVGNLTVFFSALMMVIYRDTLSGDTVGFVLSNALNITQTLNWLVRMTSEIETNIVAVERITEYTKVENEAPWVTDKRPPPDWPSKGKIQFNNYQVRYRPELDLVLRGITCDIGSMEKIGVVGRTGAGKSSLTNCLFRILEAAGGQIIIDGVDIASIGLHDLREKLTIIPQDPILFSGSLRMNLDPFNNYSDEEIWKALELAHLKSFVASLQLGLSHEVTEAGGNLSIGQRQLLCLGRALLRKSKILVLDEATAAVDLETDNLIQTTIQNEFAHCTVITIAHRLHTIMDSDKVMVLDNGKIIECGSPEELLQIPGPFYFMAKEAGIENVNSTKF

For `CN(C)C(=O)CCSC(SCCC(=O)O)c1cccc(C=Cc2ccc3ccc(Cl)cc3n2)c1` (configuration not stated) [NSC_60719], the Ki is 0.6 µM in experiment [1] and 8.5 µM in experiment [2].
